Data from PubChem BioAssay AID449764 (Southern Research Specialized Biocontainment Screening …, 2010).
pIC50: −log10 of the molar value.

System: Mycobacterium tuberculosis H37Rv growth inhibition, no glycerol
Assay: Confirmatory growth inhibition assay, Mycobacterium tuberculosis H37Rv, absence of glycerol (AID 449764);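 further: growth read after 7 days of incubation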
Details: for IC90: measured here: IC90 growth inhibition

Row | Structure (SMILES) | pIC50 | IC90 [µM]
1 | CCCCN1C(=N)N([C@@H](CCC)CN2CCC[C@H]2CN2C(N)=NC[C@@H]2Cc2ccccc2)C[C@H]1Cc1ccccc1 | 4.62 | 27.6
2 | CC(c1ccccc1)N1CCN(C(=O)CCl)CC1 (configuration not stated) | 5.56 | 4.33
3 | CC1CCN(C(=O)c2ccc(-c3ccccc3Cl)o2)CC1 | 4.39 | 60.1
4 | CN(C)N=Nc1nc[nH]c1C(N)=O | 5.30 | 8.38
5 | Cc1c(Cl)ccc2sc(N3CCN(C(=O)C4=COCCO4)CC3)nc12 | 4.65 | 30.6
6 | CCCC12CN3CC(CCC)(CN(C1)C3c1ccccn1)C2=O (configuration not stated) | 5.01 | > 100
7 | CCOC(=O)Cn1c(-c2ccccc2)ccc(C#N)c1=O | 4.98 | > 50
8 | CN(C)c1ccc(O)c2c1CC1CC3[C@@H](N(C)C)C(=O)C(C(N)=O)C(=O)[C@]3(O)C(=O)C1C2=O (some centres not stated) | 5.71 | 3.99
9 | Oc1ccc(N=Nc2n[nH]c(-c3ccc(Cl)cc3)n2)cc1 | 4.89 | 32.4
10 | CCc1ccc(NC2=NCC(c3ccccc3)S2)cc1 (configuration not stated) | 5.05 | 16.7
11 | Cc1ccc2nc(-c3cccc(Br)c3)cc(C(=O)NC3=NCCS3)c2c1 | 4.56 | 43.2
12 | CC12CCC(=O)N1C(C(=O)Nc1ccc(SC(F)F)cc1)CS2 (configuration not stated) | 4.32 | > 100
13 | Clc1cccc(-c2cc3nc4c(c(NCc5ccco5)n3n2)CCCC4)c1 | 4.66 | 24.7
14 | Cc1c(OCc2ccccc2)c(=O)ccn1Cc1ccc(Cl)cc1 | 4.24 | 95.9
15 | CCCc1ccc(NC(=O)C2CCN(c3cnccn3)CC2)cc1 | 4.17 | 82.7
16 | COc1ccc(N2C(=O)C(Cl)=C(Nc3ccccc3O)C2=O)cc1 | 4.73 | 24.8
17 | Cc1cccc(NC(=O)CCSc2nnc(Cc3ccccc3)o2)c1 | 4.42 | > 100
18 | CCCCNc1c(-c2ccc(SC3CCCCC3)c(OC)c2)nc2ccc(C)cn12 | 4.93 | 13.5
19 | CCc1nnc(N/N=C/c2cc(C)c(C)cc2C)n1N | 5.23 | 6.55
20 | Cc1cc(C(=O)CCl)c(C)n1CCc1ccc(Cl)cc1 | 5.40 | 9.41
21 | CN(CC(=O)Nc1ccc(F)c(F)c1F)c1cnccn1 | 5.01 | 13.4
22 | CC1(C)c2[nH]c3ccccc3c2C[C@@H]2C(=O)N(Cc3ccccc3F)C(=O)N21 | 4.31 | > 50
23 | N#CC(C(=O)Nc1ccccc1)=C1Nc2ccccc2N1 | 4.41 | > 100

Row | Structure (SMILES) | pIC50 | IC90 [µM]
24 | O=C(Oc1ccc(-c2cn3c(n2)SCC3)cc1)c1ccccc1 | 4.14 | > 100
25 | CCc1ccc(NC(=O)CSc2nc3n[nH]c(C)c3c(=N)n2-c2cccc(OC)c2)cc1 | 4.14 | > 100
26 | CC(C)NC(=S)N/N=C/c1cc(Br)ccc1O | 4.53 | > 100
27 | Cc1cc(C)cc(-n2c(C)c3c(C)nnc(C)c3c2C)c1 | 4.21 | 79.7
28 | COc1cc(N)c(Cl)cc1C(=O)N[C@H]1CCN(CCCOc2ccc(F)cc2)C[C@H]1OC | 4.31 | 89
29 | O=C(c1cc2ccccc2o1)N1CCN(S(=O)(=O)c2ccc(Cl)s2)CC1 | 4.81 | 56
30 | Cc1ccc(NC(=O)Cn2ccsc2=N)c([N+](=O)[O-])c1 | 4.73 | 34.7
31 | Cc1cccc2c1N(CCCOc1ccc(C(C)(C)C)cc1)C(=O)C2=O | 4.76 | 20.1
32 | CCCn1nc(C(=O)NNC(=O)c2ccc(C)c(C)c2)c2ccccc2c1=O | 4.61 | 27.9
33 | Cc1ccc(C(=O)CC(SCC(=O)O)c2ccc([N+](=O)[O-])cc2)cc1 (configuration not stated) | 4.97 | 12.1
34 | Cc1oc(C(=O)Nc2ccc(O)cc2)cc1COc1ccccc1 | 4.82 | 35.1
35 | COc1ccc(NCc2nnc(SCC(=O)c3ccc(OC)cc3)o2)cc1 | 4.68 | 22.9
36 | C=CCOc1ccc(C2=NOC(C(=O)Nc3ccc4c(c3)OCCO4)C2)cc1 (configuration not stated) | 4.38 | 60
37 | COc1cc(OC)nc(-n2ncc(Br)c(Br)c2=O)n1 | 4.65 | 25.1
38 | CN(CCCC1CCCC1)C(=O)CCc1nnc(-c2ccccc2)o1 | 4.77 | 28
39 | O=C(CCSc1ccccn1)c1ccccc1 | 4.61 | 34.1
40 | O=C(CSC1=Nc2ccccc2C2=NC(c3ccccc3)C(=O)N12)NC1CCCCC1 (configuration not stated) | 5.99 | 1.73
41 | COc1cccc(NC(=O)C2CCN(Cc3cnn(-c4ccccc4)c3-n3cccc3)CC2)c1 | 4.26 | 90
42 | c1ccc(-c2nc3nonc3nc2-c2ccccc2)cc1 | 4.54 | 39.4
43 | OCC(O)/C=N/Nc1nc(Nc2ccccc2)nc(Nc2ccccc2)n1 (configuration not stated) | 4.85 | 24.1
44 | O=[N+]([O-])c1ccc(N2CCCCC2)s1 | 4.86 | 18.5
45 | CNC(CC(C)C)C(=O)NC1C(=O)NC(CC(N)=O)C(=O)NC2C(=O)NC3C(=O)NC(C(=O)NC(C(=O)O)c4cc(O)cc(O)c4-c4cc3ccc4O)C(O)c3ccc(c(Cl)c3)Oc3cc2cc(c3OC2OC(CO)C(O)C(O)C2OC2C[C@](C)(N)C(O)C(C)O2)Oc2ccc(cc2Cl)C1O (some centres not stated) | 5.34 | 16.9
46 | O=C(Cc1ccc(Nc2nc3ccc(Br)cc3[nH]2)cc1)NCCc1cccs1 | 4.53 | 37

Row | Structure (SMILES) | pIC50 | IC90 [µM]
47 | COc1cc2c(cc1OC)C(c1cc(Br)ccc1F)N(C(=O)CCl)CC2 (configuration not stated) | 4.78 | 23
48 | O=C(COc1ccccc1)NNc1nc2ccccc2s1 | 4.03 | > 100
49 | O=C(c1ccc(Br)cc1)C(CN1CCOCC1)c1ccccc1 (configuration not stated) | 4.92 | 13.8
50 | CCOc1ccc(-n2cc(-c3ccccc3)c3c(=O)[nH]cnc32)cc1 | 4.08 | > 100
51 | CC1CCCC(NC(=O)NC(=O)CCl)C1C (configuration not stated) | 5.06 | 14.3
52 | N#Cc1ccc(OCC(O)CN2CCN(c3ncc(C(F)(F)F)cc3Cl)CC2)cc1 (configuration not stated) | 4.81 | 24.3
53 | CCCCCc1ccc(S(=O)(=O)NCCc2ccncc2)cc1 | 4.44 | 47
54 | O=C(CSc1nc2ncc(Br)cc2[nH]1)Nc1ccc2c(c1)OCO2 | 4.60 | > 100
55 | CCOC(=O)c1c(C)n(-c2ccc(C)cc2)c2ccc(OCC(O)CNCC3CCCO3)cc12 (configuration not stated) | 4.64 | 25.7
56 | O=C(NCCC1=CCCCC1)NC12CC3CC(CC(C3)C1)C2 | > 6.70 | 1.58
57 | COc1ccccc1/C=C/C(=O)Nc1ccc(S(=O)(=O)Nc2cc(C)on2)cc1 | 4.54 | 57.1
58 | Cc1cc(C)nc(-n2nc(C)cc2NC(=O)CN2CCC(C)CC2)n1 | 4.78 | 35.3
59 | C/C(=N/NC(=O)c1ccccn1)c1c[nH]c2ccccc12 | 4.97 | 21.4
60 | Cn1c(NCC(O)c2ccccc2)nc2c1c(=O)n(Cc1ccc(Cl)c(Cl)c1)c(=O)n2C (configuration not stated) | 4.11 | > 100
61 | COC(=O)C(C)Oc1ccc(Cc2ncc(C(F)(F)F)cc2Cl)cc1 (configuration not stated) | 5.46 | 5.97
62 | O=C(CCl)NCCCCCCCCCNC(=O)CCl | > 6.70 | > 100
63 | COC1=CC(=O)c2ccccc2C1=O | 4.64 | 24.6
64 | CCOC(=O)COc1cc(O)c2c(=O)cc(-c3ccccc3)oc2c1 | 5.86 | 2.03
65 | CCCCOCCCn1c(-c2ccco2)nc2nc3ccccc3nc21 | 4.00 | > 100
66 | COCCN(C(=O)C1CC(=O)N(Cc2ccccc2)C1)c1nc(-c2ccc([N+](=O)[O-])cc2)cs1 (configuration not stated) | 4.55 | > 100
67 | Cc1ccc(C(=O)N2N=C(c3ccc(NS(C)(=O)=O)cc3)CC2c2cccs2)cc1 (configuration not stated) | 4.63 | 37.5
68 | COC(=O)C1=C(C)N(Cc2ccccc2)C(=NCc2cccc(Cl)c2)N[C@H]1c1ccccc1 | 4.69 | 26.6
69 | C1=C(c2c[nH]c3ccccc23)CCNC1 | 4.25 | 73.9

Row | Structure (SMILES) | pIC50 | IC90 [µM]
70 | O=C(CCl)NCc1cc(-c2ccc(Cl)cc2)no1 | 6.46 | > 100
71 | C=CCNC(=S)N/N=C(\C)c1ccccn1 | 4.63 | 45.5
72 | COc1ccc2c(c1)[C@@H]1[C@H](CO2)[C@H](c2ccccc2)[C@]2(C)C(=O)Nc3ccc(C)cc3C(=O)N12 | 4.15 | > 100
73 | CCc1ccc(Nc2n[n+](C)c(-c3ccncc3)s2)cc1 | 4.38 | 47.6
74 | Nc1ccc(S(=O)(=O)Nc2cnc3ccccc3n2)cc1 | 4.62 | 27.3
75 | CCCCNC(=S)N(C)/N=C/c1ccc2c(c1)OCO2 | 4.93 | 21.6
76 | Clc1ccc2c(c1)C(c1ccccc1Cl)=NCc1nnc(N3CCN(CCOc4ccccc4)CC3)n1-2 | 4.46 | 46.1
77 | Cc1cc(C=C2C(=O)NC(=S)NC2=O)c(C)n1C1CCCC1 | 4.46 | 73.9
78 | COc1ccccc1NC(=O)C(C)OC(=O)/C=C/c1ccc2ccccc2n1 (configuration not stated) | 5.16 | 13.1
79 | CC1CC2=C(CC1/C=N/NC(N)=S)C(C)(C)CCC2 (configuration not stated) | 4.74 | 26.8
80 | CC1C/C(=C\c2cccnc2)C(=O)/C(=C/c2cccnc2)C1 (configuration not stated) | 5.29 | 8.18
81 | CCCCOc1ccc(-c2nnn(C(C)C(=O)OCC)n2)cc1 (configuration not stated) | 5.55 | 8.73
82 | CCOc1ccc(-c2cc(CCCC(=O)NCCC(C)C)no2)cc1 | 4.65 | 25.7
83 | C=C1C(=O)O[C@@H]2C[C@@H](C)[C@@H]3C4OC4C(=O)[C@@]3(C)[C@@H](O)[C@H]12 (some centres not stated) | 4.98 | 13
84 | CCOC(=O)c1cc2cc3ccccc3cc2oc1=O | 4.07 | > 100
85 | Cc1ccc(Cn2c(C(CO)Nc3nc(-c4ccc(F)cc4)cs3)nc3ccccc32)cc1 (configuration not stated) | 4.18 | 91.8
86 | Cc1sc2ncnc(N3CCC(C(=O)N(CC(C)C)c4nc5ccccc5s4)CC3)c2c1C |  | > 100
87 | C=CCC1(CC=C)CCCN1C(=O)c1cc(COc2ccc(-n3cncn3)cc2)on1 | 4.32 | 57.4
88 | Cc1ccc(C(=O)C2CCN(CC(=O)Nc3nc(C)cs3)CC2)cc1 | 4.32 | 53.6
89 | CN1CCN(C2=Cc3ccc(Cl)cc3Sc3ccc(F)cc32)CC1 | 4.59 | 35.5
